US10745382B2 (BRISTOL-MYERS SQUIBB COMPANY, priority 2015, dated 2020)

Biological target: T1, PD-1/PD-L1 (Homo sapiens, UniProt Q9NZQ7)
T1 construct: made in house; host or cells: HEK293T
Assay: PD-1/PD-L1 Homogenous Time-Resolved Fluorescence (HTRF) binding assay
Conditions: PD-L1-His 10 nM, PD-1-Ig 20 nM; value given as range class; read-out: Range or IC50
Protocol: The ability of the compounds of formula (I) to bind to PD-L1 was investigated using a PD-1/PD-L1 Homogenous Time-Resolved Fluorescence (HTRF) binding assay.
Homogenous Time-Resolved Fluorescence (HTRF) Binding Assay.
All binding studies were performed in an HTRF assay buffer consisting of dPBS supplemented with 0.1% […] bovine serum albumin and 0.05% (v/v) Tween-20. […] HTRF detection was achieved using europium crypate-labeled anti-Ig (1 nM final) and allophycocyanin (APC) labeled anti-His (20 nM final). Antibodies were diluted in HTRF detection buffer and 5 μl was dispensed on top of the binding reaction. […] Additional binding assays were established between the human proteins PD-1-Ig/PD-L2-His (20 & 5 nM, respectively) and CD80-His/PD-L1-Ig (100 & 10 nM, respectively). […]

T1 sequence (Q9NZQ7 with tags, fused parts or gaps): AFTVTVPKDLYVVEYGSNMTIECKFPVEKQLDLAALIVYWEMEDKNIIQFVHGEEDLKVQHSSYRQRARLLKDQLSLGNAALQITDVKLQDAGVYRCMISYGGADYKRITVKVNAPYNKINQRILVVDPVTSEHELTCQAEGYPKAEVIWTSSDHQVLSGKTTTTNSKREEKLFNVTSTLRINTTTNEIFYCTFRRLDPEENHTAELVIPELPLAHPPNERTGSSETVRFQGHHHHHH

Row | Structure (SMILES) | IC50
1 | Cc1c(COc2cc(OCc3cncc(C#N)c3)c(CN[C@](C)(CO)C(=O)O)cc2Cl)cccc1-c1cccc(OCCCN2CCC(O)C2)c1C#N (stereo in doubt) [Example 3010, (R)-2-((5-chloro-4-((2′-cyano-3′-(3-((R)-3-hydroxypyrrolidin-1-yl)propoxy)-2-methyl-[1,1′-biphenyl]-3-yl)methoxy)-2-((5-cyanopyridin-3-yl)methoxy)benzyl)amino)-3-hydroxy-2-methylpropanoic Acid] | 0.21 to 10 nM
2 | Cc1c(COc2cc(OCc3cncc(S(C)(=O)=O)c3)c(CN[C@H](CO)C(=O)O)cc2Cl)cccc1-c1cccc(OCCCN2CCC(O)(C(=O)O)CC2)c1C [Example 1040, (R)-1-(3-((3′-((4-(((1-carboxy-2-hydroxyethyl)amino)methyl)-2-chloro-5-((5-(methylsulfonyl)pyridin-3-yl)methoxy)phenoxy)methyl)-2,2′-dimethyl-[1,1′-biphenyl]-3-yl)oxy)propyl)-4-hydroxypiperidine-4-carboxylic Acid] | 0.21 to 10 nM
3 | CNC(=O)c1cccc(-c2cccc(COc3cc(OCc4cncc(C#N)c4)c(CNC(C)(CO)CO)cc3Cl)c2C)c1C [Example 4016, 3′-((2-chloro-5-((5-cyanopyridin-3-yl)methoxy)-4-(((1,3-dihydroxy-2-methylpropan-2-yl)amino)methyl)phenoxy)methyl)-N,2,2′-trimethyl-[1,1′-biphenyl]-3-carboxamide] | 0.21 to 10 nM
4 | Cc1c(COc2cc(O)c(CO)cc2Cl)cccc1-c1cccc(OCCCN2CC(N(C)C)C2)c1Cl [Example 2014, 4-chloro-5-((2′-chloro-3′-(3-(3-(dimethylamino)azetidin-1-yl)propoxy)-2-methyl-[1,1′-biphenyl]-3-yl)methoxy)-2-(hydroxymethyl)phenol] | 10 to 100 nM
5 | Cc1c(OCCCNC[C@H](O)CO)cccc1-c1cccc(COc2cc(OCc3cncc(C#N)c3)c(CNC(C)(CO)CO)cc2Cl)c1Cl [Example 2307, (S)-5-((4-chloro-5-((2-chloro-3′-(3-((2,3-dihydroxypropyl)amino)propoxy)-2′-methyl-[1,1′-biphenyl]-3-yl)methoxy)-2-(((1,3-dihydroxy-2-methylpropan-2-yl)amino)methyl)phenoxy)methyl)nicotinonitrile] | 0.21 to 10 nM
6 | Cc1c(COc2cc(OCc3cncc(C#N)c3)c(CN[C@H](CO)C(=O)O)cc2Cl)cccc1-c1cccc(OC[C@@H]2CCCN3CCCC[C@H]23)c1C [Example 1042, (R)-2-((5-chloro-2-((5-cyanopyridin-3-yl)methoxy)-4-((2,2′-dimethyl-3′-(((1R,9aR)-octahydro-1H-quinolizin-1-yl)methoxy)-[1,1′-biphenyl]-3-yl)methoxy)benzyl)amino)-3-hydroxypropanoic Acid] | 0.21 to 10 nM
7 | Cc1c(COc2cc(OCc3cncc(C#N)c3)c(CN[C@@](C)(CO)C(=O)O)cc2Cl)cccc1-c1cccc(OCC(=O)N2CC[C@H](O)C2)c1 [Example 1004, (S)-2-((5-chloro-2-((5-cyanopyridin-3-yl)methoxy)-4-((3′-(2-((S)-3-hydroxypyrrolidin-1-yl)-2-oxoethoxy)-2-methyl-[1,1′-biphenyl]-3-yl)methoxy)benzyl)amino)-3-hydroxy-2-methylpropanoic Acid] | 10 to 100 nM
8 | Cc1c(COc2cc(OCc3cncc(C#N)c3)c(CN[C@](C)(CO)C(=O)O)cc2Cl)cccc1-c1cccc(OCCCN2CCCC(CO)C2)c1Cl (stereo partly drawn) [Example 2043, (2R)-2-((5-chloro-4-((2′-chloro-3′-(3-(3-(hydroxymethyl)piperidin-1-yl)propoxy)-2-methyl-[1,1′-biphenyl]-3-yl)methoxy)-2-((5-cyanopyridin-3-yl)methoxy)benzyl)amino)-3-hydroxy-2-methylpropanoic Acid] | 0.21 to 10 nM
9 | Cc1c(COc2cc(OCc3cncc(C#N)c3)c(CN3CCCC[C@H]3C(=O)O)cc2Cl)cccc1-c1cccc(C(=O)N2CC2)c1C [Example 4001, (S)-1-(4-((3′-(aziridine-1-carbonyl)-2,2′-dimethyl-[1,1′-biphenyl]-3-yl)methoxy)-5-chloro-2-((5-cyanopyridin-3-yl)methoxy)benzyl)piperidine-2-carboxylic Acid] | 0.21 to 10 nM
10 | CCN(Cc1cc(Cl)c(OCc2cccc(-c3cccc(OCCCN4CC[C@@H](O)C4)c3C)c2C)cc1OCc1cncc(C#N)c1)[C@@](C)(CO)C(=O)O [Example 4109, (S)-2-((5-chloro-2-((5-cyanopyridin-3-yl)methoxy)-4-((3′-(3-((R)-3-hydroxypyrrolidin-1-yl)propoxy)-2,2′-dimethyl-[1,1′-biphenyl]-3-yl)methoxy)benzyl)(ethyl)amino)-3-hydroxy-2-methylpropanoic Acid] | 0.21 to 10 nM
11 | Cc1c(OCCCN2CC[C@@H](O)C2)cccc1-c1cccc(COc2cc(OCC(N)=O)c(CNC(CO)CO)cc2Cl)c1Cl [Example 2316, (R)-2-(4-chloro-5-((2-chloro-3′-(3-(3-hydroxypyrrolidin-1-yl)propoxy)-2′-methyl-[1,1′-biphenyl]-3-yl)methoxy)-2-(((1,3-dihydroxypropan-2-yl)amino)methyl)phenoxy)acetamide] | 0.21 to 10 nM
12 | Cc1c(COc2cc(OCc3cncc(C#N)c3)c(CN3CCOC[C@H]3C(=O)O)cc2Cl)cccc1-c1cccc(C(=O)N2CCOCC2)c1C [Example 4054, (S)-4-(5-chloro-2-((5-cyanopyridin-3-yl)methoxy)-4-((2,2′-dimethyl-3′-(morpholine-4-carbonyl)-[1,1′-biphenyl]-3-yl)methoxy)benzyl)morpholine-3-carboxylic Acid] | 100 to 2000 nM
13 | Cc1c(CCCCN2CC[C@@H](O)C2)cccc1-c1cccc(COc2cc(OCc3cncc(C#N)c3)c(CN[C@@H](CNC(=O)OC(C)(C)C)C(=O)O)cc2Cl)c1C [Example 4067, (S)-3-((tert-butoxycarbonyl)amino)-2-((5-chloro-2-((5-cyanopyridin-3-yl)methoxy)-4-((3′-(4-((R)-3-hydroxypyrrolidin-1-yl)butyl)-2,2′-dimethyl-[1,1′-biphenyl]-3-yl)methoxy)benzyl)amino)propanoic Acid] | 0.21 to 10 nM

Second part, the compound after the results:

Row | IC50 | Structure (SMILES)
14 | 0.21 to 10 nM | C[C@](CO)(NCc1cc(Cl)c(OCc2cccc(-c3cccc(OCCCN4C[C@@H](O)[C@H](O)C4)c3Cl)c2Cl)cc1OCc1cncc(C#N)c1)C(=O)O [Example 2078, (R)-2-((5-chloro-2-((5-cyanopyridin-3-yl)methoxy)-4-((2,2′-dichloro-3′-(3-((3R,4R)-3,4-dihydroxypyrrolidin-1-yl)propoxy)-[1,1′-biphenyl]-3-yl)methoxy)benzyl)amino)-3-hydroxy-2-methylpropanoic Acid]
15 | 0.21 to 10 nM | Cc1c(OCCCN2CCCCC2)cccc1-c1cccc(COc2cc(OCc3cncc(C#N)c3)c(CN3CCCC[C@H]3C(=O)O)cc2Cl)c1Cl [Example 2306, (S)-1-(5-chloro-4-((2-chloro-2′-methyl-3′-(3-(piperidin-1-yl)propoxy)-[1,1′-biphenyl]-3-yl)methoxy)-2-((5-cyanopyridin-3-yl)methoxy)benzyl)piperidine-2-carboxylic Acid]
16 | 0.21 to 10 nM | Cc1c(COc2cc(OCc3cncc(C#N)c3)c(CN3CCCC[C@H]3C(=O)O)cc2Cl)cccc1-c1ccc2c(c1)OC(CCN1CC[C@@H](O)C1)CO2 (single isomer, unassigned) [Example 1506]
17 | 0.21 to 10 nM | Cc1c(COc2cc(OCc3cncc(C#N)c3)c(CN[C@](C)(CO)C(=O)O)cc2Cl)cccc1-c1cccc(OCCCN2CCC(O)CC2)c1C [Example 1059, (R)-2-((5-chloro-2-((5-cyanopyridin-3-yl)methoxy)-4-((3′-(3-(4-hydroxypiperidin-1-yl)propoxy)-2,2′-dimethyl-[1,1′-biphenyl]-3-yl)methoxy)benzyl)amino)-3-hydroxy-2-methylpropanoic Acid]
18 | 100 to 2000 nM | Cc1c(COc2cc(OCc3cncc(C#N)c3)c(CN3CCCC[C@H]3C(=O)O)cc2Cl)cccc1-c1cccc(OCCC(=O)N2CC[C@@H](O)C2)c1 [Example 1011, (S)-1-(5-chloro-2-((5-cyanopyridin-3-yl)methoxy)-4-((3′-(3-((R)-3-hydroxypyrrolidin-1-yl)-3-oxopropoxy)-2-methyl-[1,1′-biphenyl]-3-yl)methoxy)benzyl)piperidine-2-carboxylic Acid]
19 | 10 to 100 nM | Cc1c(COc2cc(OCc3cncc(C#N)c3)c(C(=O)N3CCCC[C@H]3C(=O)O)cc2Cl)cccc1-c1cccc(OCCCN2CC[C@@H](O)C2)c1C [Example 2380, (S)-1-(5-chloro-2-((5-cyanopyridin-3-yl)methoxy)-4-((3′-(3-((R)-3-hydroxypyrrolidin-1-yl)propoxy)-2,2′-dimethyl-[1,1′-biphenyl]-3-yl)methoxy)benzoyl)piperidine-2-carboxylic Acid]
20 | 10 to 100 nM | Cc1c(COc2cc(OCc3cncc(C#N)c3)c(CN3CCCC[C@H]3C(=O)O)cc2Cl)cccc1-c1ccc2c(c1)OC(CCN1CC[C@H](O)C1)CO2 (mixture of isomers) [Example 1503, (2S)-1-(5-chloro-2-((5-cyanopyridin-3-yl)methoxy)-4-((3-(3-(2-((S)-3-hydroxypyrrolidin-1-yl)ethyl)-2,3-dihydrobenzo[b][1,4]dioxin-6-yl)-2-methylbenzyl)oxy)benzyl)piperidine-2-carboxylic acid]
21 | 0.21 to 10 nM | Cc1c(COc2cc(OCc3cncc(C#N)c3)c(CNC(C)(CO)CO)cc2Cl)cccc1-c1cccc(OCC(CO)CO)c1Cl [Example 2079, 5-((4-chloro-5-((2′-chloro-3′-(3-hydroxy-2-(hydroxymethyl)propoxy)-2-methyl-[1,1′-biphenyl]-3-yl)methoxy)-2-(((1,3-dihydroxy-2-methylpropan-2-yl)amino)methyl)phenoxy)methyl)nicotinonitrile]
